From BindingDB's records for doi:10.1021/jm061414r (The Scripps Research Institute, 2007)

biological target: T1, Carboxylic ester hydrolase (Homo sapiens, UniProt Q8TDZ9); assay: TGH Inhibition Assay
T1 sequence (Q8TDZ9 whole entry): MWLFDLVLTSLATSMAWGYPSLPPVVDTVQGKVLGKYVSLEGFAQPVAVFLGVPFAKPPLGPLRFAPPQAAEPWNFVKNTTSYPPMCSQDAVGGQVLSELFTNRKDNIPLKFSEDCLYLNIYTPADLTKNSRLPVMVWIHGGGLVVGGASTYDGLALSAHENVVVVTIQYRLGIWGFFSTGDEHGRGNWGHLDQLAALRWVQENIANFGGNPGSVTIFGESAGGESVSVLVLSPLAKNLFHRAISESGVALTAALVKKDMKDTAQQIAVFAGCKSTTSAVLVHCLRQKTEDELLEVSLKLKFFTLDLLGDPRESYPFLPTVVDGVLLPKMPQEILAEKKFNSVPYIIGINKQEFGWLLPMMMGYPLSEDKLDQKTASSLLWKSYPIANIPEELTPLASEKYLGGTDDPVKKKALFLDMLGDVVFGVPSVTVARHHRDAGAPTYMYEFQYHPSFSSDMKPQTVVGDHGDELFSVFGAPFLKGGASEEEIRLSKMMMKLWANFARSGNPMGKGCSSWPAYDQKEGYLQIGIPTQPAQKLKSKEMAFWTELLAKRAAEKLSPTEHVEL
Method: Inhibition of TGH activity was assayed using COS-7 expressed TGH and the chromogenic substrate. IC50 values were determined from the inhibition observed at 7 different inhibitor concentrations (three trials each).

Row | SMILES | IC50 [µM]
1 | O=C(CCc1ccc(COc2ccccc2)cc1)c1ncc(-c2ccccn2)o1 | 2
2 | O=C(CCc1ccc(OCc2ccccc2)cc1)c1ncc(-c2ccccn2)o1 [3-[4-(benzyloxy)phenyl]-1-[5-(pyridin-2-yl)-1,3-oxazol-2-yl]propan-1-one] | 8
3 | O=C(CCCCCCc1cccc(Cl)c1Cl)c1ncc(-c2ccccn2)o1 [7-(2,3-dichlorophenyl)-1-[5-(pyridin-2-yl)-1,3-oxazol-2-yl]heptan-1-one] | 0.5
